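A five-concentration, 48-hour dose response in 96-well plates underlies each endpoint, interpolated linearly between surrounding concentrations. Abbreviation: GI50, concentration required for 50% inhibition of growth. TGI marks complete inhibition of growth.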
What was measured:
Test in all cases: inhibition of tumour cell growth, NCI panel, 48 h
M14 melanoma = system: M14 melanoma
SF-268 CNS = system: SF-268 CNS
MDA-MB-231 breast = system: MDA-MB-231 breast
SR leukemia = system: SR leukemia
HOP-92 NSCLC = system: HOP-92 NSCLC
SF-539 CNS = system: SF-539 CNS
OVCAR-8 ovarian = system: OVCAR-8 ovarian
A549 NSCLC = system: A549 NSCLC
MCF7 breast = system: MCF7 breast
OVCAR-3 ovarian = system: OVCAR-3 ovarian
SK-OV-3 ovarian = system: SK-OV-3 ovarian
NCI/ADR-RES ovarian = system: NCI/ADR-RES ovarian
EKVX NSCLC = system: EKVX NSCLC
K-562 leukemia = system: K-562 leukemia
UACC-62 melanoma = system: UACC-62 melanoma
LOX IMVI melanoma = system: LOX IMVI melanoma
MALME-3M melanoma = system: MALME-3M melanoma
786-0 renal = system: 786-0 renal
HCT-15 colon = system: HCT-15 colon
UO-31 renal = system: UO-31 renal
OVCAR-4 ovarian = system: OVCAR-4 ovarian
SW-620 colon = system: SW-620 colon
BT-549 breast = system: BT-549 breast
SNB-75 CNS = system: SNB-75 CNS
HCC-2998 colon = system: HCC-2998 colon
HOP-62 NSCLC = system: HOP-62 NSCLC
SK-MEL-5 melanoma = system: SK-MEL-5 melanoma
PC-3 prostate = system: PC-3 prostate
SN12C renal = system: SN12C renal
NCI-H23 lung = system: NCI-H23 lung
SNB-19 CNS = system: SNB-19 CNS
KM12 colon = system: KM12 colon
CCRF-CEM leukemia = system: CCRF-CEM leukemia
RPMI-8226 leukemia = system: RPMI-8226 leukemia
SK-MEL-2 melanoma = system: SK-MEL-2 melanoma
SK-MEL-28 melanoma = system: SK-MEL-28 melanoma
TK-10 renal = system: TK-10 renal
COLO 205 colon = system: COLO 205 colon
ACHN renal = system: ACHN renal
NCI-H460 lung = system: NCI-H460 lung
HL-60(TB) leukemia = system: HL-60(TB) leukemia
HCT-116 colon = system: HCT-116 colon
DU-145 prostate = system: DU-145 prostate
HT29 colon = system: HT29 colon
U251 CNS = system: U251 CNS
NCI-H522 lung = system: NCI-H522 lung
RXF 393 renal = system: RXF 393 renal
IGROV1 ovarian = system: IGROV1 ovarian
UACC-257 melanoma = system: UACC-257 melanoma
T-47D breast = system: T-47D breast
MOLT-4 leukemia = system: MOLT-4 leukemia
MDA-MB-435 = system: MDA-MB-435
HS 578T breast = system: HS 578T breast
NCI-H226 lung = system: NCI-H226 lung
OVCAR-5 ovarian = system: OVCAR-5 ovarian
SF-295 CNS = system: SF-295 CNS
A498 renal = system: A498 renal

SMILES: COc1ccc(-c2cc(C(=O)N3N=C(c4ccc(N)cc4)CC3c3ccc(Cl)cc3)c3ccccc3n2)cc1 (centres undefined)
- GI50 (M14 melanoma): 1.16 µM
- TGI (M14 melanoma): > 100 µM
- GI50 (SF-268 CNS): 2.19 µM
- TGI (SF-268 CNS): > 100 µM
- GI50 (MDA-MB-231 breast): 3.28 µM
- TGI (MDA-MB-231 breast): > 100 µM
- GI50 (SR leukemia): 0.595 µM
- TGI (SR leukemia): > 100 µM
- GI50 (HOP-92 NSCLC): 1.92 µM
- TGI (HOP-92 NSCLC): > 100 µM
- GI50 (SF-539 CNS): 1.41 µM
- TGI (SF-539 CNS): > 100 µM
- GI50 (OVCAR-8 ovarian): 4.16 µM
- TGI (OVCAR-8 ovarian): > 100 µM
- GI50 (A549 NSCLC): 2.33 µM
- TGI (A549 NSCLC): > 100 µM
- GI50 (MCF7 breast): 0.442 µM
- TGI (MCF7 breast): > 100 µM
- GI50 (OVCAR-3 ovarian): 0.462 µM
- TGI (OVCAR-3 ovarian): 8.55 µM
- GI50 (SK-OV-3 ovarian): 3.32 µM
- TGI (SK-OV-3 ovarian): > 100 µM
- GI50 (NCI/ADR-RES ovarian): 0.519 µM
- TGI (NCI/ADR-RES ovarian): > 100 µM
- GI50 (EKVX NSCLC): 3.78 µM
- TGI (EKVX NSCLC): > 100 µM
- GI50 (K-562 leukemia): 1.05 µM
- TGI (K-562 leukemia): > 100 µM
- GI50 (UACC-62 melanoma): 0.556 µM
- TGI (UACC-62 melanoma): > 100 µM
- GI50 (LOX IMVI melanoma): 1.56 µM
- TGI (LOX IMVI melanoma): > 100 µM
- GI50 (MALME-3M melanoma): > 100 µM
- TGI (MALME-3M melanoma): > 100 µM
- GI50 (786-0 renal): 1.84 µM
- TGI (786-0 renal): > 100 µM
- GI50 (HCT-15 colon): 1.03 µM
- TGI (HCT-15 colon): > 100 µM
- GI50 (UO-31 renal): 1.55 µM
- TGI (UO-31 renal): > 100 µM
- GI50 (OVCAR-4 ovarian): 1.82 µM
- TGI (OVCAR-4 ovarian): > 100 µM
- GI50 (SW-620 colon): 1.24 µM
- TGI (SW-620 colon): > 100 µM
- GI50 (BT-549 breast): 2.04 µM
- TGI (BT-549 breast): 73 µM
- GI50 (SNB-75 CNS): 0.371 µM
- TGI (SNB-75 CNS): 8.66 µM
- GI50 (HCC-2998 colon): 3.4 µM
- TGI (HCC-2998 colon): > 100 µM
- GI50 (HOP-62 NSCLC): 3.21 µM
- TGI (HOP-62 NSCLC): > 100 µM
- GI50 (SK-MEL-5 melanoma): 0.701 µM
- TGI (SK-MEL-5 melanoma): 9.25 µM
- GI50 (PC-3 prostate): 2.03 µM
- TGI (PC-3 prostate): > 100 µM
- GI50 (SN12C renal): 4.27 µM
- TGI (SN12C renal): > 100 µM
- GI50 (NCI-H23 lung): 3.14 µM
- TGI (NCI-H23 lung): > 100 µM
- GI50 (SNB-19 CNS): 5.54 µM
- TGI (SNB-19 CNS): > 100 µM
- GI50 (KM12 colon): 1.15 µM
- TGI (KM12 colon): > 100 µM
- GI50 (CCRF-CEM leukemia): 5.84 µM
- TGI (CCRF-CEM leukemia): > 100 µM
- GI50 (RPMI-8226 leukemia): 3.86 µM
- TGI (RPMI-8226 leukemia): > 100 µM
- GI50 (SK-MEL-2 melanoma): 2.03 µM
- TGI (SK-MEL-2 melanoma): > 100 µM
- GI50 (SK-MEL-28 melanoma): 3.78 µM
- TGI (SK-MEL-28 melanoma): > 100 µM
- GI50 (TK-10 renal): 52.3 µM
- TGI (TK-10 renal): > 100 µM
- GI50 (COLO 205 colon): 1.99 µM
- TGI (COLO 205 colon): 6.58 µM
- GI50 (ACHN renal): 1.47 µM
- TGI (ACHN renal): > 100 µM
- GI50 (NCI-H460 lung): 1.89 µM
- TGI (NCI-H460 lung): > 100 µM
- GI50 (HL-60(TB) leukemia): 2.54 µM
- TGI (HL-60(TB) leukemia): > 100 µM
- GI50 (HCT-116 colon): 1.41 µM
- TGI (HCT-116 colon): > 100 µM
- GI50 (DU-145 prostate): 3.16 µM
- TGI (DU-145 prostate): > 100 µM
- GI50 (HT29 colon): 1.13 µM
- TGI (HT29 colon): > 100 µM
- GI50 (U251 CNS): 2.18 µM
- TGI (U251 CNS): > 100 µM
- GI50 (NCI-H522 lung): 0.307 µM
- TGI (NCI-H522 lung): 1.8 µM
- GI50 (RXF 393 renal): 0.698 µM
- TGI (RXF 393 renal): 8.22 µM
- GI50 (IGROV1 ovarian): 4.98 µM
- TGI (IGROV1 ovarian): > 100 µM
- GI50 (UACC-257 melanoma): > 100 µM
- TGI (UACC-257 melanoma): > 100 µM
- GI50 (T-47D breast): 2.71 µM
- TGI (T-47D breast): > 100 µM
- GI50 (MOLT-4 leukemia): 3.3 µM
- TGI (MOLT-4 leukemia): > 100 µM
- GI50 (MDA-MB-435): 0.305 µM
- TGI (MDA-MB-435): 2.22 µM
- GI50 (HS 578T breast): 1.05 µM
- TGI (HS 578T breast): > 100 µM
- GI50 (NCI-H226 lung): 7.54 µM
- TGI (NCI-H226 lung): > 100 µM
- GI50 (OVCAR-5 ovarian): 5.51 µM
- TGI (OVCAR-5 ovarian): > 100 µM
- GI50 (SF-295 CNS): 0.54 µM
- TGI (SF-295 CNS): > 100 µM
- GI50 (A498 renal): 0.375 µM
- TGI (A498 renal): 0.914 µM

From PubChem BioAssay (NCI)
